According to PubChem BioAssay (NCI):
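48-hour exposure; five concentrations; linearly interpolated endpoints. At the GI50, growth is halved. TGI: concentration producing complete growth inhibition.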

How the values were obtained:
Assay in all cases: DTP human tumour cell line panel, 48 h
[1] = test system: HOP-92 NSCLC
[2] = test system: SK-MEL-2 melanoma
[3] = test system: M14 melanoma
[4] = test system: SR leukemia
[5] = test system: A549 NSCLC
[6] = test system: NCI/ADR-RES ovarian
[7] = test system: HT29 colon
[8] = test system: MOLT-4 leukemia
[9] = test system: SNB-19 CNS
[10] = test system: K-562 leukemia
[11] = test system: SW-620 colon

Row | Compound | GI50 [1] [µM] | TGI [1] [µM] | GI50 [2] [µM] | TGI [2] [µM] | GI50 [3] [µM] | TGI [3] [µM] | GI50 [4] [µM] | TGI [4] [µM] | GI50 [5] [µM] | TGI [5] [µM] | GI50 [6] [µM] | TGI [6] [µM] | GI50 [7] [µM] | TGI [7] [µM] | GI50 [8] [µM] | TGI [8] [µM] | TGI [9] [µM] | TGI [10] [µM] | TGI [11] [µM]
1 | O=c1ccc2nc(-c3ccccc3)nn(-c3ccccn3)c-2c1 | 1.25 | 3.31 | 15 | 41.9 | 16.7 | 44.6 | 2.97 | 18.5 | 38.4 | > 100 | 19.6 | 67.1 | 3.2 | 15.1 | 1.79 | 6.21 | – | – | –
2 | Cc1ccc2ccccc2c1NC1=NCCO1 | – | 46.8 | – | – | – | > 100 | – | > 100 | – | > 100 | – | > 100 | – | > 100 | – | > 100 | > 100 | > 100 | > 100
3 | CCOP(=O)(CCCC(O)CNc1cc(Cl)nc(N)n1)OCC (stereo not given) | – | > 100 | – | > 100 | – | – | – | > 100 | – | > 100 | – | > 100 | – | > 100 | – | > 100 | – | > 100 | > 100
4 | COc1ccc(-c2c(=O)[nH]n3c(=S)nc(-c4ccccc4)[nH]c23)cc1OC | – | 37 | – | – | – | 38 | – | 24.2 | – | > 100 | – | 55.7 | – | 48.8 | – | 33.4 | 28.5 | 95 | 83.8
5 | C=C(C)C1Cc2c(cc(O)c3c(=O)c4c(oc23)C(O)Oc2cc(OC)c(OC)cc2-4)O1 (stereo not given) | – | > 10 | – | – | – | > 10 | – | > 10 | – | > 10 | – | > 10 | – | > 10 | – | > 10 | > 10 | > 10 | > 10
6 | O=C1c2ccccc2NC(=O)C2C1C(c1ccccc1)CC2(O)c1ccccc1 (stereo not given) | – | 67 | – | > 100 | – | > 100 | – | > 100 | – | > 100 | – | > 100 | – | > 100 | – | 71.5 | > 100 | – | > 100
7 | CC(OC(C)(C)C)[C@H](NC(=O)OC(C)(C)C)C(=O)O (stereo not given in full) | – | > 100 | – | – | – | > 100 | – | > 100 | – | > 100 | – | > 100 | – | > 100 | – | > 100 | > 100 | > 100 | > 100
8 | CC1(C)O[C@@H]2[C@@H](COC(=O)c3ccccc3)C[C@@H](C#N)[C@@H]2O1 | – | > 100 | – | – | – | > 100 | – | > 100 | – | > 100 | – | > 100 | – | > 100 | – | > 100 | > 100 | > 100 | > 100
9 | CC(=O)OCC1OC(n2c(-c3ccccc3)c(C(C)=O)c(-c3ccc(Cl)cc3)c(C#N)c2=S)C(OC(C)=O)C(OC(C)=O)C1OC(C)=O (stereo not given) | – | 71.5 | – | – | – | > 100 | – | > 100 | – | > 100 | – | > 100 | – | > 100 | – | > 100 | > 100 | > 100 | > 100
10 | Cc1c(C)c2c(c(N)c1C#N)C(=O)N(Nc1ccccc1)C2=O | – | > 100 | – | > 100 | – | > 100 | – | > 100 | – | > 100 | – | > 100 | – | – | – | > 100 | > 100 | > 100 | > 100
